Data taken from patent US11999728B2, “Estrogen receptor modulators” (Recurium IP Holdings, LLC, priority 2020, dated 2024).

Legend:
[1] = system: MCF7; assay: Breast Cancer Cell Proliferation Assay (MCF-7), Cell Titer-Glo; format: cell-based; details: Homo sapiens, MCF7, 120 h, MCF7 cells, 5 days of compound exposure
How it was run: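 MCF7 cells in phenol red-free DMEM/F12 with charcoal-stripped FBS exposed 5 days to 10-point dilutions (10–0.000005 μM final), 17β-estradiol as control. Viability by CellTiter-Glo luminescence, background-subtracted and expressed relative to estrogen-only treated cells; day-1 pretreatment wells plated.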

[2] = Pharmacokinetic Determination (Mouse PK); format: in vivo, female CD-1 mice; details: female; for Kp at 2 h: CD-1, PO 10.0 mg/kg, Brain concentration vs plasma concentration at 2 hours post dosing, read-out: B/P ratio; for AUC(0-t) / bioavailability / Cmax / Tmax / clearance / half-life / Vd: CD-1, plasma; for bioavailability: PO 10.0 mg/kg vs IV 3.0 mg/kg; for Vd: read-out: Vdss
Description: Pharmacokinetic Determination
Grouping female CD-1 mice weighing 20-30 g randomly to three groups; one group was administered with test compound at a dose of 3.0 mg/kg by intravenous injection, the other two groups were administered with test compound at a dose of 10.0 mg/kg by oral. The formulation for IV groups is DMSO/PEG400/30% HP-β-CD (5/20/75) and the formulation for PO groups is 25% HP-β-CD in 25 mM citrate buffer (pH3.0). After administering, blood samples of intravenous injection group were collected at time points of predose, 0.0833, 0.25, 0.5, 1, 2, 4, 8, 12 and 24 h; blood samples of oral group were collected at time points of predose, 0.25, 0.5, 1, 2, 4, 8, 12, and 24 h. Both blood samples and brain samples were collected at 2 hours post dosing for the second PO group. Standard curve was plotted based on concentrations of the samples in a suitable range, the concentrations of test compounds in plasma samples and brain samples were determined by using LC-MS/MS. Pharmacokinetic parameters were calculated according to drug concentration-time curve using a noncompartmental method by WinNonLin (Phoenix™, version 6.1) or other similar software.

[3] = system: MCF-7 Human Breast Cancer Orthotopic Model; assay: Efficacy Study on MCF-7 Human Breast Cancer Orthotopic Model (tumor growth inhibition); format: in vivo, mouse; details: tumor growth inhibition = (1−(Td−T0)/(Cd−C0))×100%; MCF-7 orthotopic model
Description: Efficacy Study on MCF-7 Human Breast Cancer Orthotopic Model
The MCF-7 tumor cell line were maintained in vitro as monolayer culture in DMEM Medium supplemented with 15% heat inactivated fetal bovine serum at 37° C. in an atmosphere of 5% CO2 in air. The medium were renewed every 2 to 3 days and tumor cells were routinely subcultured at a confluence of 80%-90% by trypsin-EDTA, not to exceed 4-5 passages. The cells growing in an exponential growth phase were harvested and counted for tumor inoculation.
Each mouse was inoculated subcutaneously on the 2nd right mammary fat pad with the single cell suspension of 95% viable tumor cells (1.5×10^7) in 200 μL DMEM Matrigel mixture (1:1 ratio) without serum for the tumor development. The treatments were started when mean tumor size reached 195 mm^3.
The measurement of tumor size was conducted twice a week with a caliper and the tumor volume (mm^3) was estimated using the formula: TV=a×b^2/2 throughout the study, where “a” and “b” was long and short diameters of a tumor, respectively. The TVs were used for calculation of the tumor growth inhibition (TGI, an indicator of antitumor effectiveness) value using the formula: (1−(Td−T0)/(Cd−C0))×100%. Td and Cd are the mean tumor volumes of the treated and control animals, and T0 and C0 are the mean tumor volumes of the treated and control animals at the start of the experiment. The tumor regression was defined as individual tumor volume decrease (terminal TV compares to initial TV). The percent tumor regression was calculated using the formula: (1−(Td/T0))×100%.

[4] = Plasma and tumor PK analysis post final dosing in MCF-7 orthotopic model; format: in vivo, mouse; details: MCF-7 orthotopic model mice; for Tumor AUC: tumor samples 2 h, 8 h and 24 h post final dosing; for AUC / Kp: mouse; for AUC: plasma, post final dosing, 0.25-24 h; for Kp: tumor AUC vs plasma AUC, read-out: Tumor/Plasma ratio
Description: Plasma samples were collected with seven time points (0.25 h, 0.5 h, 1 h, 2 h, 4 h, 8 h, and 24 h) post final dosing for PK analysis. Tumor samples were collected with three time points (2 h, 8 h and 24 h) post final dosing for PK analysis.

Structure (SMILES)	IC50 [1] [nM]	Kp at 2 h [2]	AUC(0-t) ([2]; IV, 3.0 mg/kg) [µM·h]	bioavailability [2] [%]	AUC(0-t) ([2]; PO, 10.0 mg/kg) [µM·h]	Cmax ([2]; PO, 10.0 mg/kg) [nM]	Tmax ([2]; PO, 10.0 mg/kg) [h]	TGI [3] [%]	Tumor AUC [4] [ng·h/mL]	AUC [4] [ng·h/mL]	Kp [4]	clearance ([2]; IV, 3.0 mg/kg) [mL/min/kg]	half-life ([2]; IV, 3.0 mg/kg) [h]	Vd ([2]; IV, 3.0 mg/kg) [L/kg]	half-life ([2]; PO, 10.0 mg/kg) [h]
CCCN1CC(Nc2ccc([C@@H]3c4[nH]c5ccccc5c4C[C@@H](C)N3C34CC(C3)C4)cc2)C1 [Compound 31, N-(4-((1R,3R)-2-(bicyclo[1.1.1]pentan-1-yl)-3-methyl-2,3,4,9-tetrahydro-1H-pyrido[3,4-b]indol-1-yl)phenyl)-1-propylazetidin-3-amine]	≤ 25	12	1.03	87.7	3	240	2	106	360399	6780	53.1	–	–	–	–
CCCN1CC(Oc2ccc([C@@H]3c4[nH]c5ccccc5c4C[C@@H](C)N3C34CC(C3)C4)cc2)C1 [Compound 39, (1R,3R)-2-(bicyclo[1.1.1]pentan-1-yl)-3-methyl-1-(4-((1-propylazetidin-3-yl)oxy)phenyl)-2,3,4,9-tetrahydro-1H-pyrido[3,4-b]indole]	≤ 25	11.4	1.33	29.6	1.31	224	0.5	–	–	–	–	85	5.13	16	3.95
C[C@@H]1Cc2c([nH]c3ccccc23)[C@@H](c2ccc(NC3CN(CCCF)C3)cc2)N1C12CC(C1)C2 [Compound 40, N-(4-((1R,3R)-2-(bicyclo[1.1.1]pentan-1-yl)-3-methyl-2,3,4,9-tetrahydro-1H-pyrido[3,4-b]indol-1-yl)phenyl)-1-(3-fluoropropyl)azetidin-3-amine]	≤ 25	13.5	1.47	70.5	3.46	261	1	–	–	–	–	64.2	11.5	49.6	–
C[C@@H]1Cc2c([nH]c3ccccc23)[C@@H](c2ccc(N[C@H]3CCN(CCCF)C3)cc2)N1C12CC(C1)C2 [Compound 42, (S)—N-(4-((1R,3R)-2-(bicyclo[1.1.1]pentan-1-yl)-3-methyl-2,3,4,9-tetrahydro-1H-pyrido[3,4-b]indol-1-yl)phenyl)-1-(3-fluoropropyl)pyrrolidin-3-amine]	≤ 25	29.4	1.51	55.4	2.79	220	1	106	296719	5310	55.9	40	–	–	–
CCCN1CC[C@H](Nc2ccc([C@@H]3c4[nH]c5ccccc5c4C[C@@H](C)N3C34CC(C3)C4)cc2)C1 [Compound 72, (S)—N-(4-((1R,3R)-2-(bicyclo[1.1.1]pentan-1-yl)-3-methyl-2,3,4,9-tetrahydro-1H-pyrido[3,4-b]indol-1-yl)phenyl)-1-propylpyrrolidin-3-amine]	≤ 25	8.82	2.17	51.5	3.73	240	4	–	–	–	–	–	–	–	–
C[C@@H]1Cc2c([nH]c3ccccc23)[C@@H](c2ccc(N[C@@H]3CN(CCCF)C[C@H]3F)cc2)N1C12CC(C1)C2 [Compound 75, (3R,4R)—N-(4-((1R,3R)-2-(bicyclo[1.1.1]pentan-1-yl)-3-methyl-2,3,4,9-tetrahydro-1H-pyrido[3,4-b]indol-1-yl)phenyl)-4-fluoro-1-(3-fluoropropyl)pyrrolidin-3-amine]	≤ 25	6.84	1.49	59.2	2.94	840	0.5	–	–	–	–	66.1	7.29	17.9	7.38
C[C@@H]1Cc2c([nH]c3ccccc23)[C@@H](c2c(F)cc(NC3CN(CCCF)C3)cc2F)N1CC(F)(F)CO [GDC9545, reference compound]	≤ 25	0.17	–	–	13.3	960	4	130	183743	10500	17.5	–	–	–	8.66
